Measurements as given in US20240269139A1, “COMPOUNDS FOR TARGETED PROTEIN DEGRADATION OF KINASES” (DANA-FARBER CANCER INSTITUTE, INC., priority 2020, published 2024).
Like-named read-outs stand apart in the source and are kept apart here.

Experiments:
Type in all cases: cell-based
[1] = target: protein kinases (human kinome) (Homo sapiens, UniProt P06239)
[2] = target: T1, protein kinases (human kinome) (Homo sapiens, UniProt Q16854); settings: DGUOK (Q16854)
T1 sequence (Q16854 40-277): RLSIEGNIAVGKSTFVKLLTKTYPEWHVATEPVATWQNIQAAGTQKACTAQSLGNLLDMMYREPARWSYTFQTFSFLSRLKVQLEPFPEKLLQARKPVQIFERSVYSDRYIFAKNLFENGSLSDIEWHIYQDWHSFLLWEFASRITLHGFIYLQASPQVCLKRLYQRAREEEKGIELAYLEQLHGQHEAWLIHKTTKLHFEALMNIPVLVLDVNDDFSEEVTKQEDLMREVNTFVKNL

[3] = target: T2, protein kinases (human kinome) (Homo sapiens, UniProt Q9H8X2); settings: IPPK (Q9H8X2)
T2 sequence (Q9H8X2 1-491): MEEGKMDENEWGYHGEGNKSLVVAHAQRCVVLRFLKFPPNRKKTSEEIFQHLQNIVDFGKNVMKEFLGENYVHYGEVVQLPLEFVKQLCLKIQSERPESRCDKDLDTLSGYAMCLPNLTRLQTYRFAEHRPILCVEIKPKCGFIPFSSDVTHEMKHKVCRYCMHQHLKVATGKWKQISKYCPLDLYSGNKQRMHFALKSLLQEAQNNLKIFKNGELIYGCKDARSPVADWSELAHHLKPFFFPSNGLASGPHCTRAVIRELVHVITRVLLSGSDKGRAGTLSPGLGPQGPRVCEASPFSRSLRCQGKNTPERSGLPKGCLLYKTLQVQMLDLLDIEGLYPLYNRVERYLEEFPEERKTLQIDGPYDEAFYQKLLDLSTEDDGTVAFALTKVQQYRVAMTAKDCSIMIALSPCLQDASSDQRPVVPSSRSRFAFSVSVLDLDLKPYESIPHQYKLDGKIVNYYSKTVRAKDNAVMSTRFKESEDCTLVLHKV

[4] = target: protein kinases (human kinome) (Homo sapiens, UniProt P54646); settings: experiment wp146; for logFC: PRKAA2 (P54646)
protein kinases (human kinome) (Homo sapiens, UniProt P54646), sequence (P54646 whole entry): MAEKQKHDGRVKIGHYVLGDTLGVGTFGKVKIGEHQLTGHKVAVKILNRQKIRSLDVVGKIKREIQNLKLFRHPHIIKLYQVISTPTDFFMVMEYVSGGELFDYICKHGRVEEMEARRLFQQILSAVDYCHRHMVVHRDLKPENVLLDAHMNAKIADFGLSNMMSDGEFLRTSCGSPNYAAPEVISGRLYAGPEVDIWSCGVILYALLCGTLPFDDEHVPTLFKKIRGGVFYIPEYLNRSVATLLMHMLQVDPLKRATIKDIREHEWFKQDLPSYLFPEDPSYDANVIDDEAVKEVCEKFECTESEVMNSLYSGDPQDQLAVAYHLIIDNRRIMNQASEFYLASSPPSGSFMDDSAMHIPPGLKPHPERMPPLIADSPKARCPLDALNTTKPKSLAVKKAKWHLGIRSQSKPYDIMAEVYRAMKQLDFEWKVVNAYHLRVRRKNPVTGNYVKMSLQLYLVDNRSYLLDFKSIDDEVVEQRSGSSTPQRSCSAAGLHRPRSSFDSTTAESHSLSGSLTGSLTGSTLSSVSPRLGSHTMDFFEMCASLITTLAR

[5] = target: T3, protein kinases (human kinome) (Homo sapiens, UniProt O15197); settings: for logFC: EPHB6 (O15197-1)
T3 sequence (O15197 32-1021): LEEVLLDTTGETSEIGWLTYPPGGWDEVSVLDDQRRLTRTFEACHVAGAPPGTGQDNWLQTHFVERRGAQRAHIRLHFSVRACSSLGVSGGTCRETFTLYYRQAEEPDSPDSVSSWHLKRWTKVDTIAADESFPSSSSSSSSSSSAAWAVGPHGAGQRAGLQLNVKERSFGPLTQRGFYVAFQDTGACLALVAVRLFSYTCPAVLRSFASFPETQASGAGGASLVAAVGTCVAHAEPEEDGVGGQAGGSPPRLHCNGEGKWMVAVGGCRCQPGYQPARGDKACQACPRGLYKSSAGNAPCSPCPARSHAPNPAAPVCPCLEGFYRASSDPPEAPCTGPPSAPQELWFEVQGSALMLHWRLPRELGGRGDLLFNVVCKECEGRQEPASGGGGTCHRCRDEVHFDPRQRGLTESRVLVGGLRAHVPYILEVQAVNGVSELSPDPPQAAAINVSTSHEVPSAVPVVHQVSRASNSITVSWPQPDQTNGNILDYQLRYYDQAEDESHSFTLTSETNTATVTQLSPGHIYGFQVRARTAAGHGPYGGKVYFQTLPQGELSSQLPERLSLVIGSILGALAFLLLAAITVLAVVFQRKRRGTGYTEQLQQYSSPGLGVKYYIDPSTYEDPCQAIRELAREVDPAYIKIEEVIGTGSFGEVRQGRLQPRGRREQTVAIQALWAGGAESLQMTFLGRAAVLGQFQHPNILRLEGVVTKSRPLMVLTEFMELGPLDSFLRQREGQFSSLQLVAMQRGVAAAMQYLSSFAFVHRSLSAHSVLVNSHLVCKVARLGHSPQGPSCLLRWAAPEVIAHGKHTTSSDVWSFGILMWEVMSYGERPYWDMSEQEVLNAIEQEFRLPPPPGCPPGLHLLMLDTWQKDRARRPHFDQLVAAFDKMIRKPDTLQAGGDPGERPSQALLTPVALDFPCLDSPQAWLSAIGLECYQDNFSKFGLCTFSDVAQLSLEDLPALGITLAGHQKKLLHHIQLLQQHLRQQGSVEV

[6] = target: protein kinases (human kinome) (Homo sapiens, UniProt Q15418); settings: for logFC: RPS6KA1 (Q15418-1), direction down
protein kinases (human kinome) (Homo sapiens, UniProt Q15418), sequence (Q15418 whole entry): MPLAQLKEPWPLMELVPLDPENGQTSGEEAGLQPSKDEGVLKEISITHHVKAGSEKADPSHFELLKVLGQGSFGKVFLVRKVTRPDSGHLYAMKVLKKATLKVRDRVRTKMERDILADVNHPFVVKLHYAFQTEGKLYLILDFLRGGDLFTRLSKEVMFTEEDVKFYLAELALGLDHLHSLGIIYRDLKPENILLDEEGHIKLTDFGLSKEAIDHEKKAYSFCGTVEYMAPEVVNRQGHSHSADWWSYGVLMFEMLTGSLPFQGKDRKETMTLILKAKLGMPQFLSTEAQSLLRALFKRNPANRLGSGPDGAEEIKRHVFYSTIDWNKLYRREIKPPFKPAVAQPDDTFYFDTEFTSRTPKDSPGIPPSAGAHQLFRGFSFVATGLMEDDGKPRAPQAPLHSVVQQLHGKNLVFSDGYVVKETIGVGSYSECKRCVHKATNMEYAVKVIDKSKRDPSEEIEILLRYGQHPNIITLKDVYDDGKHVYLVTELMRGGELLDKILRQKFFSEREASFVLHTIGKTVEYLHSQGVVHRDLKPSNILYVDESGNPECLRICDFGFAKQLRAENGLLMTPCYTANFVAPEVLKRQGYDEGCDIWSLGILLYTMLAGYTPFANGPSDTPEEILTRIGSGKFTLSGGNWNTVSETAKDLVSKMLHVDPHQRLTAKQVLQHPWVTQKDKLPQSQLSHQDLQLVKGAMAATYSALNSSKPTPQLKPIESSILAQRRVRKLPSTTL

[7] = target: protein kinases (human kinome) (Homo sapiens, UniProt Q92918)
protein kinases (human kinome) (Homo sapiens, UniProt Q92918), sequence (Q92918 whole entry): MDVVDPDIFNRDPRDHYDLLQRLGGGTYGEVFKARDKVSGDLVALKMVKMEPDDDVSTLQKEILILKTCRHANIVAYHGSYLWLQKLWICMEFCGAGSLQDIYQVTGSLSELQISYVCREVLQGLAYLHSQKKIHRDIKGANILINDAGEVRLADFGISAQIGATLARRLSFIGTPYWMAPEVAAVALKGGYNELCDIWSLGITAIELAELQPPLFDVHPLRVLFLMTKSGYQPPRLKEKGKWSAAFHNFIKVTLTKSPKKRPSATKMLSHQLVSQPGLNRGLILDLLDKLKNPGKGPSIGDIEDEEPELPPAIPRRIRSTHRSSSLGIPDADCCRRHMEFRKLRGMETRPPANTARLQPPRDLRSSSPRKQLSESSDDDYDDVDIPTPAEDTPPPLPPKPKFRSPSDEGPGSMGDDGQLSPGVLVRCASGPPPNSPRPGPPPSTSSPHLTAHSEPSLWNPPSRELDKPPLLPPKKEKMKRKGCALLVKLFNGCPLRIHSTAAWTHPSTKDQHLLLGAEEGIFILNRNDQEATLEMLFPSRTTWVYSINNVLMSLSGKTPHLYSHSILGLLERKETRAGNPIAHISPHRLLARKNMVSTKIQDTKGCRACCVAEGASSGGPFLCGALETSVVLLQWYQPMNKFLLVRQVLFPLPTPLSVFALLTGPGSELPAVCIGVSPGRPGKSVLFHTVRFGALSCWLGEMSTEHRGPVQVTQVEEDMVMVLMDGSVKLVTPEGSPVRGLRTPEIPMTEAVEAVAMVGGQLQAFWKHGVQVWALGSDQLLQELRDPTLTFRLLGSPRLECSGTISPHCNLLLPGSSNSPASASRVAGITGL

[8] = target: protein kinases (human kinome) (Homo sapiens, UniProt P06241); settings: for logFC: FYN (P06241-1), direction down
protein kinases (human kinome) (Homo sapiens, UniProt P06241), sequence (P06241 whole entry): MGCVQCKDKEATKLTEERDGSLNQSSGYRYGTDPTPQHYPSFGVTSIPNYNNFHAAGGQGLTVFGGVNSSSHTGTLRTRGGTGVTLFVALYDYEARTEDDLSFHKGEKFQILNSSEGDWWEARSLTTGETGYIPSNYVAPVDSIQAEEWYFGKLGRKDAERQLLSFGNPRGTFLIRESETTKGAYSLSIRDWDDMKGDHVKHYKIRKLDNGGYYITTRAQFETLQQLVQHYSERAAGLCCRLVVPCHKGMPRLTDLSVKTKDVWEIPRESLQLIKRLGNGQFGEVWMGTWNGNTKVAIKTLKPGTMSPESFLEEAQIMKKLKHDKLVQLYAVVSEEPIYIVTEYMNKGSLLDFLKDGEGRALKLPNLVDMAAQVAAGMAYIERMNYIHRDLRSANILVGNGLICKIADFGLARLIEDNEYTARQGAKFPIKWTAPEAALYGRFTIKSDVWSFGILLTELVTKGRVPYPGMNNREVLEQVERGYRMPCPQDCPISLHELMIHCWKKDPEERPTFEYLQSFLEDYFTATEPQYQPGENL

[9] = LCK, accession P06239-1, experiment wp081, direction of change down
[10] = Accession P06241-1, experiment wp105

protein kinases (human kinome) (Homo sapiens, UniProt P06239), sequence (P06239 whole entry): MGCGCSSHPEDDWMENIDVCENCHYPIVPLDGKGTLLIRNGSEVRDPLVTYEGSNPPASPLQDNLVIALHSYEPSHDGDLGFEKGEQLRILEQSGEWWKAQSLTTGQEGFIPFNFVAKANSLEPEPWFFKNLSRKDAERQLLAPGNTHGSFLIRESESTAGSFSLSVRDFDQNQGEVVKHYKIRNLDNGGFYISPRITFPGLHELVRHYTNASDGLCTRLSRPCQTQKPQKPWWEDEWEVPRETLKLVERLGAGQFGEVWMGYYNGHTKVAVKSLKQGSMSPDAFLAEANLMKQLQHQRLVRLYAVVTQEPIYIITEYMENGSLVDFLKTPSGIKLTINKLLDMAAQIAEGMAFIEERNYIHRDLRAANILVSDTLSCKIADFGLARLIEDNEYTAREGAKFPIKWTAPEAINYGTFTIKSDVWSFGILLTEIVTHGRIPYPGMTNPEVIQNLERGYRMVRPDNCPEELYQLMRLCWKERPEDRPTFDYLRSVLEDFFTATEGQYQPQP

Cc1ccc(C(=O)Nc2ccc(CN3CCN(CCOCCOCCNC(=O)CNc4cccc5c4C(=O)N(C4CCC(=O)NC4=O)C5=O)CC3)c(C(F)(F)F)c2)cc1C#Cc1cnc2cccnn12 (stereo not drawn) [TL13.150]
logFC LCK ([1]; LCK P06239-1, experiment wp081): −0.7129 | logFC LCK [1, 9]: −0.7129

CN(C)C(=O)c1cc2cnc(Nc3ccc(N4CCN(CCCCNC(=O)COc5cccc6c5C(=O)N(C5CCC(=O)NC5=O)C6=O)CC4)cn3)nc2n1C1CCCC1 (stereo not drawn) [BSJ.04.132]
logFC ([2]; experiment wp084): −0.5254

Cc1ncsc1-c1ccc([C@H](C)NC(=O)[C@@H]2C[C@@H](O)CN2C(=O)[C@@H](NC(=O)CCOCCOCCN2CCN(c3ccc(Nc4ncc(Cl)c(Nc5ccccc5S(=O)(=O)C(C)C)n4)cc3)CC2)C(C)(C)C)cc1 [FMF.06.098.1]
logFC ([3]; experiment wp114): −0.5773

C=CCn1c(=O)c2cnc(Nc3ccc(N4CCN(CCCNc5cccc6c5C(=O)N(C5CCC(=O)NC5=O)C6=O)CC4)cc3)nc2n1-c1cccc(C(C)(C)O)n1 (stereo not drawn) [ZNL.02.096]
logFC ([2]; experiment wp118): −0.5337

Cc1cc(Nc2ncc(Br)c(Nc3cccc(F)c3C(N)=O)n2)ccc1S(=O)(=O)NCCOCCOCCOCCOCCNc1cccc2c1C(=O)N(C1CCC(=O)NC1=O)C2=O (stereo not drawn) [TMX.02.174]
logFC [4]: −1.826 | logFC of PRKAA2 (P54646) [4]: −1.826

Cc1ccc(NC(=O)c2cccc(C(F)(F)F)c2)cc1N1Cc2cnc(Nc3ccc(N4CCN(CCCOc5cccc6c5C(=O)N(C5CCC(=O)NC5=O)C6=O)CC4)nc3)nc2N(C)C1=O (stereo not drawn) [DB0662]
logFC ([5]; experiment wp168): −0.736 | logFC of EPHB6 (O15197-1) ([5]; Experiment wp168): −0.736 | logFC LCK ([1]; LCK P06239-1, experiment wp168): −0.9078 | logFC LCK ([1]; LCK, accession P06239-1, experiment wp168, direction of change down): −0.9078 | logFC ([6]; experiment wp168): −0.4724 | logFC RPS6KA1 (Q15418-1) ([6]; experiment wp168): −0.4724 | logFC MAP4K1 (Q92918) ([7]; experiment wp168): −0.4067

CC(C)S(=O)(=O)c1ccccc1Nc1nc(Nc2ccc(N3CCN(CCOCCOCCNC(=O)CNc4cccc5c4C(=O)N(C4CCC(=O)NC4=O)C5=O)CC3)cc2)ncc1Cl (stereo not drawn) [TL12.186]
logFC ([6]; experiment wp131): −0.3562 | logFC RPS6KA1 (Q15418-1) ([6]; experiment wp131): −0.3562 | logFC MAP4K1 (Q92918) ([7]; experiment wp131): −0.4581 | logFC MAP4K1 (Q92918) ([7]; experiment wp137): −0.6136 | logFC ([3]; experiment wp131): −0.6311

Cc1ccc(C(=O)Nc2ccc(CN3CCN(CCCOCCOCCOCCNC(=O)COc4cccc5c4C(=O)N(C4CCC(=O)NC4=O)C5=O)CC3)c(C(F)(F)F)c2)cc1C#Cc1cnc2cccnn12 (stereo not drawn) [SB1.G.187]
logFC FYN [8, 10]: −0.7697 | logFC FYN ([8]; Accession P06241-1, experiment wp107): −0.3601 | logFC ([8]; experiment wp105): −0.7697 | logFC ([8]; experiment wp107): −0.3601

CC(C)(C)c1nc(-c2cccc(NS(=O)(=O)c3c(F)cccc3F)c2F)c(-c2ccnc(NCCOCCNC(=O)CCOCCOCCNc3cccc4c3C(=O)N(C3CCC(=O)NC3=O)C4=O)n2)s1 (stereo not drawn) [DD.03.106]
logFC ([2]; experiment wp147, 4 uM): −0.5418

NC(=O)c1c(F)cccc1Nc1nc(Nc2ccc(S(=O)(=O)NCCOCCOCCOCCOCCNc3cccc4c3C(=O)N(C3CCC(=O)NC3=O)C4=O)cc2)ncc1Br (stereo not drawn) [TMX.02.138]
logFC [4]: −1.476 | logFC of PRKAA2 (P54646) [4]: −1.476

Cc1ccc(NC(=O)c2cccc(C(F)(F)F)c2)cc1N1Cc2cnc(Nc3ccc(N4CCN(Cc5cn(CCCCCOc6cccc7c6C(=O)N(C6CCC(=O)NC6=O)C7=O)nn5)CC4)nc3)nc2N(C)C1=O (stereo not drawn) [DB0646, N-(3-(7-((6-(4-((1-(5-((2-(2,6-Dioxopiperidin-3-yl)-1,3-dioxoisoindolin-4-yl)oxy)pentyl)-1H-1,2,3-triazol-4-yl)methyl)piperazin-1-v)pyridin-3-yl)amino)-1-methyl-2-oxo-1,4-dihydropyrimido[4,5-d]pyrimidin-3(2H)-yl)-4-methylphenyl)-3-(trifluoromethyl)benzamide]
logFC ([5]; experiment wp160, 4 hr): −0.3396 | logFC ([5]; experiment wp160, 8 hr): −0.6548 | logFC of EPHB6 (O15197-1) ([5]; experiment wp160, 4 hr): −0.3396 | logFC of EPHB6 (O15197-1) ([5]; experiment wp160, 8 hr): −0.6548 | logFC LCK ([1]; LCK P06239-1, experiment wp160, 4 hr): −0.4575 | logFC LCK ([1]; LCK P06239-1, experiment wp160, 8 hr): −0.5386 | logFC LCK ([1]; LCK, accession P06239-1, experiment wp160, 4 hr, direction of change down): −0.4575 | logFC LCK ([1]; LCK, accession P06239-1, experiment wp160, 8 hr, direction of change down): −0.5386 | logFC LCK ([1]; LCK, accession P06239, experiment wp152, direction of change down): −0.4468 | logFC of LCK (P06239) ([1]; experiment wp152): −0.4468 | logFC FYN [8, 10]: −0.4621 | logFC FYN ([8]; Accession P06241, experiment wp152): −0.3685 | logFC FYN (P06241) ([8]; Experiment wp152, direction of change down): −0.3685 | logFC ([8]; experiment wp105): −0.4621 | logFC ([6]; experiment wp160, 8 hr): −0.413 | logFC RPS6KA1 (Q15418-1) ([6]; experiment wp160, 8 hr): −0.413 | logFC MAP4K1 (Q92918) ([7]; experiment wp045): −0.4789 | logFC MAP4K1 (Q92918) ([7]; experiment wp152): −0.3638 | logFC MAP4K1 (Q92918) ([7]; experiment wp160, 4 hr): −0.3228 | logFC MAP4K1 (Q92918) ([7]; experiment wp160, 8 hr): −0.5785

Cn1c(=O)c(-c2c(Cl)cccc2Cl)cc2cnc(Nc3ccc(OCCNC(=O)CCCCCCNC(=O)COc4cccc5c4C(=O)N(C4CCC(=O)NC4=O)C5=O)cc3)nc21 (stereo not drawn) [SB1.G.192.1]
logFC ([5]; experiment wp071): −0.6259 | logFC ([5]; experiment wp131): −0.5189 | logFC of EPHB6 (O15197-1) ([5]; experiment wp071): −0.6259 | logFC of EPHB6 (O15197-1) ([5]; experiment wp131): −0.5189 | logFC LCK ([1]; LCK P06239-1, experiment wp081): −1.748 | logFC LCK [1, 9]: −1.748 | logFC FYN ([8]; Accession P06241-1, experiment wp081): −0.9314 | logFC ([8]; experiment wp081): −0.9314

CC(=O)c1c(C)c2cnc(Nc3ccc(N4CCN(CCOCCOCCOCCNC(=O)COc5cccc6c5C(=O)N(C5CCC(=O)NC5=O)C6=O)CC4)cn3)nc2n(C2CCCC2)c1=O (stereo not drawn) [BSJ.03.123]
logFC ([2]; experiment wp084): −0.4377

CC(C)(C)c1nc(-c2cccc(NS(=O)(=O)c3c(F)cccc3F)c2F)c(-c2ccnc(NCCOCCNC(=O)CCOCCOCCNc3cccc4c3CN(C3CCC(=O)NC3=O)C4=O)n2)s1 (stereo not drawn) [DD.03.107]
logFC ([2]; experiment wp147, 1 uM): −0.5245 | logFC ([2]; experiment wp147, 4 uM): −0.9678

Cc1ccc(NC(=O)c2cccc(C(F)(F)F)c2)cc1N1Cc2cnc(Nc3ccc(N4CCN(CCCCC(=O)N[C@H](C(=O)N5C[C@H](O)C[C@H]5C(=O)N[C@@H](C)c5ccc(-c6scnc6C)cc5)C(C)(C)C)CC4)nc3)nc2N(C)C1=O [DB1113]
logFC ([6]; experiment wp168): −0.7297 | logFC RPS6KA1 (Q15418-1) ([6]; experiment wp168): −0.7297 | logFC MAP4K1 (Q92918) ([7]; experiment wp168): −0.8463
